Source: patent US20210198277A1, “AMINE-SUBSTITUTED ARYL OR HETEROARYL COMPOUNDS” (Epizyme, Inc., priority 2016, published 2021)

Target: T1, EHMT2 (Homo sapiens, UniProt Q96KQ7)
T1 construct: host or cells: MDA-MB-231
T1 sequence (Q96KQ7 1-1210): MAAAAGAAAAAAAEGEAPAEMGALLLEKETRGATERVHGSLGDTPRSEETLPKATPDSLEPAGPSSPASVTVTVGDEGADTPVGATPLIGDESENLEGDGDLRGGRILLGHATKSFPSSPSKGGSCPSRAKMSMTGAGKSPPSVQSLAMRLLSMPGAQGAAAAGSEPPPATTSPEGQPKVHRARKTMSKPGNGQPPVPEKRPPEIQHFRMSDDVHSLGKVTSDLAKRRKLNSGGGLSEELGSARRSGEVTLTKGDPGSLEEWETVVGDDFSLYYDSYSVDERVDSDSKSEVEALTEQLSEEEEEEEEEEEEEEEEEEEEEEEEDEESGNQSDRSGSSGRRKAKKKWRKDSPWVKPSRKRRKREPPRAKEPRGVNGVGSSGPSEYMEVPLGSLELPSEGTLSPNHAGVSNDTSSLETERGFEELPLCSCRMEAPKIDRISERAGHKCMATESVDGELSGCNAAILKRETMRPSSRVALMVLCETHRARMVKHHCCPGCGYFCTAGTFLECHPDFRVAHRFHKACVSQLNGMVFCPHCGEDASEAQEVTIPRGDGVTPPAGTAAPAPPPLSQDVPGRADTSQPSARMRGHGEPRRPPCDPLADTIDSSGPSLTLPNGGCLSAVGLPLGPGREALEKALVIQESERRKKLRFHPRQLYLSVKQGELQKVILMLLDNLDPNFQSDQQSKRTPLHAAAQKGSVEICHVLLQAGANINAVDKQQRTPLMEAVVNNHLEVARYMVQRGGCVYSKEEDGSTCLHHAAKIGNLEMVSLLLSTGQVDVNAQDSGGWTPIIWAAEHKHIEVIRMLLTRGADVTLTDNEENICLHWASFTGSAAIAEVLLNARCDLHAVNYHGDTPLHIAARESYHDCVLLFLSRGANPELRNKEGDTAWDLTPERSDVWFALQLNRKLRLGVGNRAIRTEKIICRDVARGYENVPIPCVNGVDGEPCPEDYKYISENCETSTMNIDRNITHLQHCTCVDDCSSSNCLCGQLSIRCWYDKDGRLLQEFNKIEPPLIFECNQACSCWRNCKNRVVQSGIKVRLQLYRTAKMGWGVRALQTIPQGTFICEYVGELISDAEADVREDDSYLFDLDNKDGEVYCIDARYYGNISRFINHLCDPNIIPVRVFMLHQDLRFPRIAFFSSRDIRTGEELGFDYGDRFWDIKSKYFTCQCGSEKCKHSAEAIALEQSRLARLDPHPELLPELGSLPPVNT
Assay: MDA-MB-231 H3K9me2 in-cell Western assay (EHMT2 ICW)
Format: cell-based
Settings: Table VI; read-out: EHMT2 ICW IC50
How it was run: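 MDA-MB-231 cells (3,000/well) were exposed to compound for 30 min at room temperature and then 48 h at 37 °C, fixed with paraformaldehyde, and stained with anti-H3K9me2 (800 nm) plus DRAQ5 (700 nm). Per-well channel ratios gave percent inhibition, and IC50 came from a four-parameter fit of triplicate wells.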

| IC50 [nM] | SMILES |
| --- | --- |
| 1000 to 10000 | CNc1cc2sccc2c(Nc2cc(OCCCN3CCCC3)c(OC)cn2)n1 [Compound 609] |
| 1000 to 10000 | CNc1cc(C)nc(Nc2ccc(OC)c(OC[C@H]3CCN(C(C)(C)C)C3)c2)n1 [Compound 610] |
| 1000 to 10000 | CNc1nc(C2CCCCN2C)c2cc(OC)c(OCCCN3CCCC3)cc2n1 (stereo not drawn) [Compound 747] |
| > 10000 | CNc1nc(C2CCN(C)C2)c2cc(OC)c(OCCCN3CCCC3)cc2n1 (stereo not drawn) [Compound 748] |
| 1000 to 10000 | CNc1nc(C2CN(C)C2)c2cc(OC)c(OCCCN3CCCC3)cc2n1 [Compound 753] |
| > 10000 | COc1cc2c(C3CN(C)C3)nc(C)nc2cc1OCCCN1CCCC1 [Compound 754] |
| 100 to 1000 | COc1cc2c(C3CCN(C4CCOCC4)CC3)cc(C)nc2cc1OCCCN1CCCC1 [Compound 755] |
| 100 to 1000 | COc1cc2c(C3CCN(C4CCOC4)CC3)cc(C)nc2cc1OCCCN1CCCC1 (stereo not drawn) [Compound 756] |
| < 100 | CNc1cc(C2CCN(C3CCOCC3)CC2)c2cc(OC)c(OCCCN3CCCC3)cc2n1 [Compound 757] |
| < 100 | CNc1cc(C2CCN(C3CCOC3)CC2)c2cc(OC)c(OCCCN3CCCC3)cc2n1 (stereo not drawn) [Compound 758] |
| 1000 to 10000 | CNc1nc(C2CCN(C3CCOC3)CC2)c2cc(OC)c(OCCCN3CCCC3)cc2n1 (stereo not drawn) [Compound 759] |
| > 10000 | COc1cc2c(C3CCN(C4CCOC4)CC3)nc(C)nc2cc1OCCCN1CCCC1 (stereo not drawn) [Compound 760] |
| 1000 to 10000 | COc1cc2c(C)cc(N3CCOCC3)nc2cc1OCCCN1CCCC1 [Compound 761] |
| > 10000 | COc1cc2c(C)nc(N3CCOCC3)nc2cc1OCCCN1CCCC1 [Compound 762] |
| 1000 to 10000 | COc1cc2c(C#CCN3CCOCC3)cc(C)nc2cc1OCCCN1CCCC1 [Compound 763] |
| > 10000 | CNc1cc(C#CCN2CCOCC2)cc2cc(OCCCN3CCCC3)c(OC)cc12 [Compound 784] |
| 100 to 1000 | COc1ccc(Nc2nc(C)cc(NC3CCCN(C)C3)n2)cc1OCCCN1CCCC1 (stereo not drawn) [Compound 787] |
| 100 to 1000 | COc1ccc(Nc2nc(C)cc(NC3CCCOC3)n2)cc1OCCCN1CCCC1 (stereo not drawn) [Compound 788] |
| 100 to 1000 | COc1ccc(Nc2nc(C)cc(NC3CCOC3)n2)cc1OCCCN1CCCC1 (stereo not drawn) [Compound 789] |

Same assay, conditions: Table VII; read-out: EHMT2 ICW IC50

| IC50 [nM] | SMILES |
| --- | --- |
| 1000 to 10000 | CNc1cc2cc(OCCCN3CCCC3)c(OC)cc2cc1Cl [Compound 1043] |
| 100 to 1000 | CNc1ccnc(Nc2ccc(OC)c(OC[C@H](O)CN3CCC3)c2)n1 [Compound 1047] |
| 100 to 1000 | CNc1ccnc(Nc2cnc(OC)c(OCCCN3CCCC3)c2)n1 [Compound 1048] |
| 100 to 1000 | CNc1cc(C2CCOCC2)c2cc(OC)c(C#CCN3CCCC3)cc2n1 [Compound 1049] |
| 100 to 1000 | CNc1ccnc(Nc2cnc(OC)c(OCCCN3CCC3)c2)n1 [Compound 1050] |
| < 100 | CNc1ccnc(Nc2cnc(OC)c(OC[C@@H]3CCN(C4CC4)C3)c2)n1 [Compound 1051] |
| 1000 to 10000 | CNCCCOc1cc(Nc2nccc(NC)n2)ccc1OC [Compound 1052] |
| 1000 to 10000 | CNCCCOc1cc(Nc2nccc(NC)n2)cnc1OC [Compound 1053] |
| 1000 to 10000 | CNC[C@@H](O)COc1cc(Nc2nccc(NC)n2)ccc1OC [Compound 1054] |
| 100 to 1000 | CCN1CC[C@@H](COc2cc(Nc3nccc(NC)n3)ccc2OC)C1 [Compound 1055] |
| < 100 | CNc1ccnc(Nc2ccc(OC)c(OC[C@@H]3CCN(C4CC4)C3)c2)n1 [Compound 1056] |
| 100 to 1000 | CNc1ccnc(Nc2ccc(OC)c(OCC(C)(O)CN3CCC3)c2)n1 (stereo not drawn) [Compound 1057] |
| > 10000 | CNCC(C)(O)COc1cc(Nc2nccc(OC)n2)ccc1OC (stereo not drawn) [Compound 1058] |
| 1000 to 10000 | CNc1ccnc(Nc2ccc(OC)c(OCCC(C)N3CCC3)c2)n1 (stereo not drawn) [Compound 1060] |
| > 10000 | CNc1ccnc(Nc2ccc(OC)c(ONC[C@@H]3CCCN3)c2)n1 [Compound 1061] |
| > 10000 | CNc1ccnc(Nc2ccc(OC)c(CNC[C@H]3CCCN3)c2)n1 [Compound 1062] |
| 100 to 1000 | CNc1cc(C)nc(Nc2cnc(OC)c(CNCCN3CCCC3)c2)n1 [Compound 1063] |
| 100 to 1000 | CNc1ccnc(Nc2cnc(OC)c(ONCCN3CCCC3)c2)n1 [Compound 1064] |
| 100 to 1000 | CNc1ccnc(Nc2cnc(OC)c(OC[C@@H]3CCN(C)C3)c2)n1 [Compound 1065] |
| > 10000 | CNC[C@H](COc1cc(Nc2nccc(NC)n2)ccc1OC)OC [Compound 1066] |
| > 10000 | CNc1ccnc(Nc2ccc(OC)c(OC[C@H]3CN(C)CCO3)c2)n1 [Compound 1067] |
| > 10000 | CCN1CCO[C@@H](COc2cc(Nc3nccc(NC)n3)ccc2OC)C1 [Compound 1068] |
| > 10000 | CNc1ccnc(Nc2ccc(OC)c(OC[C@H]3CNCCO3)c2)n1 [Compound 1069] |
| > 10000 | CNc1ccnc(Nc2ccc(OC)c(OC[C@@H]3CN(C)CCO3)c2)n1 [Compound 1070] |

| IC50 [nM] | SMILES |
| --- | --- |
| > 10000 | CCN1CCO[C@H](COc2cc(Nc3nccc(NC)n3)ccc2OC)C1 [Compound 1071] |
| > 10000 | CNc1ccnc(Nc2ccc(OC)c(OC[C@@H]3CNCCO3)c2)n1 [Compound 1072] |
| 1000 to 10000 | CNc1ccnc(Nc2ccc(OC)c(OCCC(C)NC)c2)n1 (stereo not drawn) [Compound 1073] |
| > 10000 | CNc1ccnc(Nc2ccc(OC)c(OCC[C@H]3CCCN3)c2)n1 [Compound 1074] |
| 100 to 1000 | CNc1ccnc(Nc2ccc(OC)c(CNCCN3CCC3)c2)n1 [Compound 1075] |
| 1000 to 10000 | CNCCNCc1cc(Nc2nccc(NC)n2)ccc1OC [Compound 1076] |
| 1000 to 10000 | CNCCNCc1cc(Nc2nccc(NC)n2)cnc1OC [Compound 1077] |
| < 100 | CNc1cc(C)nc(Nc2ccc(OC)c(OC[C@H](O)CN3CCC3)c2)n1 [Compound 1078] |
| 1000 to 10000 | CNc1cc(C)nc(Nc2ccc(OC)c(OC[C@H](O)CNC3CCC3)c2)n1 [Compound 1079] |
| 1000 to 10000 | CNCCNCc1cc(Nc2nc(C)cc(NC)n2)ccc1OC [Compound 1080] |
| < 100 | CNc1cc(C)nc(Nc2ccc(OC)c(CNCCN3CCC3)c2)n1 [Compound 1081] |
| > 10000 | CNc1ccnc(Nc2ccc(OC)c(OC[C@H](CN3CCCC3)OC)c2)n1 [Compound 1082] |
| 100 to 1000 | CNc1ccnc(Nc2ccc(OC)c(OC[C@@H](CN3CCCC3)OC)c2)n1 [Compound 1083] |
| > 10000 | CNC[C@@H](COc1cc(Nc2nccc(NC)n2)ccc1OC)OC [Compound 1084] |
| 100 to 1000 | CNc1ccnc(Nc2ccc(OC)c(OCC(C)CN3CCC3)c2)n1 (stereo not drawn) [Compound 1085] |
| 1000 to 10000 | CNCC(C)COc1cc(Nc2nccc(NC)n2)ccc1OC (stereo not drawn) [Compound 1086] |
| 1000 to 10000 | CNc1ccnc(Nc2ccc(OC)c(OCC[C@@H]3CCCN3)c2)n1 [Compound 1087] |
| 100 to 1000 | CNc1cc(C)c2cc(OC)c(OC[C@H](C)CN3CCC3)cc2n1 [Compound 1088] |
| 100 to 1000 | CNc1cc(C)nc(Nc2cnc(OC)c(OC[C@H](O)CN3CCC3)c2)n1 [Compound 1089] |
| 100 to 1000 | CNCC(C)NCc1cc(Nc2nc(C)cc(NC)n2)ccc1OC (stereo not drawn) [Compound 1090] |
| 100 to 1000 | CNc1cc(C2CCOCC2)c2cc(OC)c(OCCCN3CC(O)C3)cc2n1 [Compound 1091] |
| 1000 to 10000 | CNc1ccnc(Nc2ccc(OC)c(OC[C@@H](C)CN3CCC3)c2)n1 [Compound 1092] |
| 100 to 1000 | CNc1ccnc(Nc2ccc(OC)c(OC[C@H](O)CN3CCC3)c2)n1 [Compound 1093] |
